ChEMBL document CHEMBL1201862, “PubChem BioAssay data set” (2004)
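Briefly, cells in 96-well plates were exposed to five compound concentrations for 48 h, and endpoints were estimated by linear interpolation. At the GI50, growth is halved.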 Calls of active or inactive are those of the source. No stated cut-off is given here; in the data, active = GI50 up to about 1.1 µM and inactive = higher.

Key:
Experiment in all cases: inhibition of tumour cell growth, NCI panel, 48 h
SK-MEL-2 = tested on: SK-MEL-2
RXF 393 = tested on: RXF 393
A549 = tested on: A549
SNB-75 = tested on: SNB-75
HT-29 = tested on: HT-29
OVCAR-5 = tested on: OVCAR-5
DMS-273 = tested on: DMS-273
NCI-H460 = tested on: NCI-H460
SN12C = tested on: SN12C
U-251 = tested on: U-251
COLO 205 = tested on: COLO 205
DLD-1 = tested on: DLD-1
EKVX = tested on: EKVX
IGROV-1 = tested on: IGROV-1
HOP-62 = tested on: HOP-62
M19-MEL = tested on: M19-MEL
T47D = tested on: T47D
DU-145 = tested on: DU-145
MDA-N = tested on: MDA-N
PC-3 = tested on: PC-3

| SMILES | GI50 (SK-MEL-2) | GI50 (RXF 393) | GI50 (A549) | GI50 (SNB-75) | GI50 (HT-29) | GI50 (OVCAR-5) | GI50 (DMS-273) | GI50 (NCI-H460) | GI50 (SN12C) | GI50 (U-251) | GI50 (COLO 205) | GI50 (DLD-1) | GI50 (EKVX) | GI50 (IGROV-1) | GI50 (HOP-62) | GI50 (M19-MEL) | GI50 (T47D) | GI50 (DU-145) | GI50 (MDA-N) | GI50 (PC-3) |
| --- | --- | --- | --- | --- | --- | --- | --- | --- | --- | --- | --- | --- | --- | --- | --- | --- | --- | --- | --- | --- |
| COc1nc(NC2OCC(OC(C)=O)C(OC(C)=O)C2OC(C)=O)c(/N=C(\C)C(C)=O)c(=O)n1C (stereo unspecified) | > 100 µM (inactive) | > 100 µM (inactive) | > 100 µM (inactive) | > 100 µM (inactive) | > 100 µM (inactive) | > 100 µM (inactive) | > 100 µM (inactive) | > 100 µM (inactive) | > 100 µM (inactive) | > 100 µM (inactive) | > 100 µM (inactive) | > 100 µM (inactive) | > 100 µM (inactive) | > 100 µM (inactive) |  |  |  |  |  |  |
| O=c1cc(/C=C/c2ccccc2)c2ccc(O/C(=C\c3ccccc3)c3nc4ccccc4c(=O)o3)cc2o1 | 25.6 µM (inactive) |  | 30.4 µM (inactive) |  |  | 44.9 µM (inactive) | 23 µM (inactive) | 23.3 µM (inactive) | 26.3 µM (inactive) | 23 µM (inactive) | 22.2 µM (inactive) | 26.7 µM (inactive) | 23.7 µM (inactive) | 30.1 µM (inactive) | 28 µM (inactive) | 25.3 µM (inactive) |  |  |  |  |
| CN1C(=O)CC2(C)c3cc(C=O)ccc3N(C)C12 (stereo unspecified) | > 100 µM (inactive) | > 100 µM (inactive) | > 100 µM (inactive) | 69.5 µM (inactive) | > 100 µM (inactive) | > 100 µM (inactive) |  | > 100 µM (inactive) | > 100 µM (inactive) | > 100 µM (inactive) | > 100 µM (inactive) | > 100 µM (inactive) | > 100 µM (inactive) | > 100 µM (inactive) | > 100 µM (inactive) | > 100 µM (inactive) |  |  |  |  |
| CCCCc1c2c(nc3c1CCCC3O)/C(=C/c1ccccc1)CCC2 (stereo unspecified) | 24.8 µM (inactive) | 39.9 µM (inactive) | 49.5 µM (inactive) | 35.3 µM (inactive) | 22.1 µM (inactive) | 32.8 µM (inactive) | 20.7 µM (inactive) | 17.1 µM (inactive) | 23.2 µM (inactive) | 28 µM (inactive) | 17.9 µM (inactive) |  | 29.6 µM (inactive) | 45.8 µM (inactive) | 36.5 µM (inactive) | 23.1 µM (inactive) |  |  |  |  |
| COP(=O)(OC)C(=O)N1N(c2ccc([N+](=O)[O-])cc2)C(=O)C(C)NC1(NNc1ccc([N+](=O)[O-])cc1)P(=O)(OC)OC (stereo unspecified) | > 100 µM (inactive) |  | > 100 µM (inactive) | > 100 µM (inactive) |  | > 100 µM (inactive) | > 100 µM (inactive) | > 100 µM (inactive) | > 100 µM (inactive) | > 100 µM (inactive) | > 100 µM (inactive) | > 100 µM (inactive) | > 100 µM (inactive) | > 100 µM (inactive) | > 100 µM (inactive) | > 100 µM (inactive) |  |  |  |  |
| COC(=O)C1CCC(N2C(=O)CCC2C(=O)OC)=N1 (stereo unspecified) | > 100 µM (inactive) |  | > 100 µM (inactive) | > 100 µM (inactive) | > 100 µM (inactive) | > 100 µM (inactive) | > 100 µM (inactive) | > 100 µM (inactive) | > 100 µM (inactive) | > 100 µM (inactive) | > 100 µM (inactive) | > 100 µM (inactive) | > 100 µM (inactive) | > 100 µM (inactive) | > 100 µM (inactive) | > 100 µM (inactive) |  |  |  |  |
| CC(=O)OCC1OC(n2c(-c3ccc(C)cc3)cc(-c3ccccc3)c(C#N)c2=O)C(OC(C)=O)C(OC(C)=O)C1OC(C)=O (stereo unspecified) | > 100 µM (inactive) |  | > 100 µM (inactive) | 71.6 µM (inactive) | > 100 µM (inactive) | > 100 µM (inactive) |  | > 100 µM (inactive) | > 100 µM (inactive) | > 100 µM (inactive) | > 100 µM (inactive) | > 100 µM (inactive) | > 100 µM (inactive) | > 100 µM (inactive) | > 100 µM (inactive) | > 100 µM (inactive) |  |  |  |  |
| CCOC(=O)C(=Cc1ccc(Oc2ccccc2)cc1)C(=O)OCC | 1.85 µM (inactive) | 1.89 µM (inactive) | 8.45 µM (inactive) | 2.66 µM (inactive) | 3.18 µM (inactive) | 4.44 µM (inactive) | 1.69 µM (inactive) | 18.2 µM (inactive) | 2.27 µM (inactive) | 3.35 µM (inactive) | 4.06 µM (inactive) | 2.14 µM (inactive) | 15.4 µM (inactive) | 6.81 µM (inactive) | 3.28 µM (inactive) |  | 5.85 µM (inactive) | 11.6 µM (inactive) | 4.41 µM (inactive) | 2.16 µM (inactive) |
| CN1Nc2ccccc2CC1=O | > 100 µM (inactive) |  | > 100 µM (inactive) | > 100 µM (inactive) | > 100 µM (inactive) | > 100 µM (inactive) | > 100 µM (inactive) | > 100 µM (inactive) | > 100 µM (inactive) | > 100 µM (inactive) | > 100 µM (inactive) | > 100 µM (inactive) | > 100 µM (inactive) | > 100 µM (inactive) | > 100 µM (inactive) | > 100 µM (inactive) |  |  |  |  |
| Cc1cc2c(c(C(N)=O)c1C)-c1cccc(F)c1C2=O | > 100 µM (inactive) |  | > 100 µM (inactive) | 30.3 µM (inactive) | > 100 µM (inactive) | > 100 µM (inactive) | > 100 µM (inactive) | > 100 µM (inactive) | > 100 µM (inactive) | > 100 µM (inactive) | > 100 µM (inactive) | > 100 µM (inactive) | > 100 µM (inactive) | > 100 µM (inactive) | > 100 µM (inactive) | > 100 µM (inactive) |  |  |  |  |
| Cc1cc(O)nc(NN2C(Cl)C(=O)C2c2ccc([N+](=O)[O-])cc2)n1 (stereo unspecified) | 6.07 µM (inactive) | 0.76 µM (active) | 14.7 µM (inactive) | 2.58 µM (inactive) | 15.6 µM (inactive) | 25.1 µM (inactive) | 8.34 µM (inactive) | 4.04 µM (inactive) | 11.1 µM (inactive) | 13.8 µM (inactive) | 18.6 µM (inactive) |  | 23 µM (inactive) | 4.03 µM (inactive) | 7.76 µM (inactive) | 4.26 µM (inactive) |  |  |  |  |
| CCN(CC)CCNc1ccc2ncn3c4ccccc4c(=O)c1c23 | 5.01 µM (inactive) |  | 2.85 µM (inactive) |  | 2.2 µM (inactive) | 7.93 µM (inactive) |  | 2.26 µM (inactive) | 5.36 µM (inactive) | 4.52 µM (inactive) | 1.87 µM (inactive) | 3.5 µM (inactive) |  | 3.83 µM (inactive) | 5.81 µM (inactive) | 3.63 µM (inactive) |  |  |  |  |
| O=C(N/C(=C\c1ccccc1Cl)c1nc2ccccc2[nH]1)c1ccccc1 | 23.5 µM (inactive) | 27.4 µM (inactive) | 26.7 µM (inactive) |  | 24.3 µM (inactive) | 30.8 µM (inactive) |  |  | 16.7 µM (inactive) | 27 µM (inactive) | 34.6 µM (inactive) | 30.2 µM (inactive) | 21.3 µM (inactive) | 25.1 µM (inactive) |  | 33 µM (inactive) |  |  |  |  |
| O=c1[nH]c2c(O)cccc2c2cc3c(c(O)c12)OCO3 [NARCIPRIMINE] |  |  | 25.5 µM (inactive) | 20.8 µM (inactive) | 21.2 µM (inactive) |  | 18.7 µM (inactive) | 14.6 µM (inactive) | 20.7 µM (inactive) | 16 µM (inactive) | 13.1 µM (inactive) | 14.6 µM (inactive) | 25.8 µM (inactive) | 26.1 µM (inactive) | 19.2 µM (inactive) | 20.3 µM (inactive) |  |  |  |  |
